In patent publication US12374538B2, “Systems and methods for quantifying an analyte extracted from a sample” (Purdue Research Foundation, priority 2014, dated 2025):
Several values for one entry are separate records, joined by “and”; a condition that tells them apart may be missing. Equal values may be shown once.

Tested on: not given
Conditions: log([solute]octanol/[solute]water), un-ionized compound; cited from earlier work

**Q.** With `Cc1ccc(/N=C/N(C)/C=N/c2ccc(C)cc2C)c(C)c1` [amitraz] as the compound, how does the “Log P (partition coefficient)” value read?
**A.** Its value is 5.

**Q.** With `CN1[C@H]2CC[C@@H]1[C@@H](C(=O)O)[C@@H](OC(=O)c1ccccc1)C2` [benzoylecgonine] as the compound, how does the “Log P (partition coefficient)” value read?
**A.** The value was −0.59 and −0.6.

**Q.** With `CN1C(=O)CC[C@H]1c1cccnc1` [cotinine] as the compound, how does the “Log P (partition coefficient)” value read?
**A.** Its value is 0.07.

**Q.** With `N[C@@H](Cc1ccccc1)C(=O)O` [phenylalanine] as the compound, how does the “Log P (partition coefficient)” value read?
**A.** The value was −1.38.

Tested on: cholinesterase (ChE)
Conditions: human whole blood diluted 10 times, acetylthiocholine 1.8 mg/mL, 5 min incubation in capillary, vs control
Procedure: For testing of a particular solvent, 5 μL blood sample (diluted) was injected into the capillary with the extraction solvent plug immediately after the mixing the acetylthiocholine into the blood. After the 5 min incubation in capillary, the TCh/ATch ratio was measured using SFME nanoESI MS. For the control, 5 min after the mixing acetylthiocholine into the diluted blood, the sample was taken and analyzed immediately using SFME nanoESI MS with ethyl acetate as the extraction phase. Spray voltage of 1.5 kV was used for nanoESI.
SFME-nanoESI was applied for monitoring the enzymatic activity of cholinesterase (ChE) in whole blood samples. […] The blood sample was diluted 10 times to slow down the reaction rate as well as to facilitate the slug flows for SFME. The substrate acetylthiocholine iodine was added into the diluted blood sample at a concentration of 1.8 mg/mL, and then 5 μL sample was taken immediately and injected into the capillary with 5 μL extraction phase. The capillary with the sample and the extraction solvent was left in room temperature 25° C. for incubation. The SFME-nanoESI could be performed repeatedly on the same sample and the ratio of the substrate ATCh and the reaction product TCh could be monitored as a function of time to characterize the enzymatic activity of the ChE. […]

**Q.** Which “reduction of ChE activity due to contact with extraction solvent” value does the source give for `ClC(Cl)Cl` [chloroform] here?
**A.** Its value is “more than 60%”.

**Q.** For `CCOC(C)=O` [ethyl acetate], which “reduction of ChE activity due to contact with extraction solvent” value is on record?
**A.** Its value is “minimal”.
